According to paper PMC3425516 (PLoS ONE, 2012):

Assays:
Assay in all cases: NCI-60 cell lines screening
Assay type in all cases: cell-based, human
SW-620 = conditions: SW-620, Colon Cancer panel
Protocol: (§1) The NCI-60 cancer cell lines screening was conducted by the NCI’s Developmental Therapeutics Program (DTP; http://www.dtp.nci.nih.gov/branches/btb/ivclsp.html).

U251 = conditions: U251, CNS Cancer panel
Protocol: as §1

RXF 393 = conditions: RXF 393, Renal Cancer panel
Protocol: as §1

SNB-75 = conditions: SNB-75, CNS Cancer panel
Protocol: as §1

HCC-2998 = conditions: HCC-2998, Colon Cancer panel
Protocol: as §1

OVCAR-5 = conditions: OVCAR-5, Ovarian Cancer panel
Protocol: as §1

SK-MEL-28 = conditions: SK-MEL-28, Melanoma panel
Protocol: as §1

NCI-H23 = conditions: NCI-H23, Non-Small Cell Lung Cancer panel
Protocol: as §1

LOX IMVE = conditions: Melanoma panel
Protocol: as §1

EKVX = conditions: Non-Small Cell Lung Cancer panel
Protocol: as §1

K-562 = conditions: K-562, Leukemia panel
Protocol: as §1

SK-MEL-5 = conditions: SK-MEL-5, Melanoma panel
Protocol: as §1

OVCAR-3 = conditions: OVCAR-3, Ovarian Cancer panel
Protocol: as §1

COLO 205 = conditions: COLO 205, Colon Cancer panel
Protocol: as §1

KM12 = conditions: KM12, Colon Cancer panel
Protocol: as §1

HT29 = conditions: HT29, Colon Cancer panel
Protocol: as §1

SF-539 = conditions: SF-539, CNS Cancer panel
Protocol: as §1

MOLT-4 = conditions: MOLT-4, Leukemia panel
Protocol: as §1

786-0 = conditions: 786-0, Renal Cancer panel
Protocol: as §1

NCI-H522 = conditions: NCI-H522, Non-Small Cell Lung Cancer panel
Protocol: as §1

CCRF-CEM = conditions: Leukemia panel
Protocol: as §1

SR = conditions: Leukemia panel
Protocol: as §1

SN12C = conditions: Renal Cancer panel
Protocol: as §1

HCT-15 = conditions: HCT-15, Colon Cancer panel
Protocol: as §1

HOP-62 = conditions: HOP-62, Non-Small Cell Lung Cancer panel
Protocol: as §1

T-47D = conditions: Breast Cancer panel
Protocol: as §1

UACC-62 = conditions: UACC-62, Melanoma panel
Protocol: as §1

RPMI-8226 = conditions: RPMI-8226, Leukemia panel
Protocol: as §1

OVCAR-4 = conditions: OVCAR-4, Ovarian Cancer panel
Protocol: as §1

SK-MEL-2 = conditions: SK-MEL-2, Melanoma panel
Protocol: as §1

[1] = Homo sapiens, read-out: LC50 (the source's name)

O=C(C=Cc1ccc2c(c1)CCN2S(=O)(=O)c1ccccc1)NO [MPT0E028, 3-(1-benzenesulfonyl-2,3-dihydro-1H-indol-5-yl)-N-hydroxy-acrylamide]
GI50 (SW-620; Homo sapiens): 147 nM
CC50 (SW-620; [1]): > 100000 nM
TGI (SW-620): 11200 nM
GI50 (U251; Homo sapiens, U-251): 199 nM
CC50 (U251; Homo sapiens, U-251, read-out: LC50 (the source's name)): 3760 nM
TGI (U251): 820 nM
GI50 (RXF 393; Homo sapiens): 112 nM
CC50 (RXF 393; [1]): 998 nM
TGI (RXF 393): 334 nM
GI50 (SNB-75; Homo sapiens): 59.1 nM
CC50 (SNB-75; [1]): 32800 nM
TGI (SNB-75): 6270 nM
TGI (HCC-2998): 522 nM
GI50 (HCC-2998; Homo sapiens): 194 nM
CC50 (HCC-2998; [1]): 2060 nM
GI50 (OVCAR-5; Homo sapiens): 60.2 nM
CC50 (OVCAR-5; [1]): 2580 nM
TGI (OVCAR-5): 316 nM
GI50 (SK-MEL-28; Homo sapiens): 406 nM
CC50 (SK-MEL-28; [1]): > 100000 nM
TGI (SK-MEL-28): 2740 nM
GI50 (NCI-H23; Homo sapiens): 188 nM
CC50 (NCI-H23; [1]): 3840 nM
TGI (NCI-H23): 922 nM
GI50 (LOX IMVE; Homo sapiens): 222 nM
CC50 (LOX IMVE; [1]): 2880 nM
TGI (LOX IMVE): 718 nM
GI50 (EKVX; Homo sapiens): 534 nM
TGI (EKVX): >100000 nM
GI50 (K-562; Homo sapiens, K562): 115 nM
CC50 (K-562; Homo sapiens, K562, read-out: LC50 (the source's name)): > 100000 nM
TGI (K-562): >100000 nM
GI50 (SK-MEL-5; Homo sapiens): 136 nM
CC50 (SK-MEL-5; [1]): 705 nM
TGI (SK-MEL-5): 310 nM
GI50 (OVCAR-3; Homo sapiens): 233 nM
CC50 (OVCAR-3; [1]): 7300 nM
TGI (OVCAR-3): 933 nM
TGI (COLO 205): 264 nM
GI50 (COLO 205; Homo sapiens): 128 nM
CC50 (COLO 205; [1]): 546 nM
GI50 (KM12; Homo sapiens): 286 nM
CC50 (KM12; [1]): 5780 nM
TGI (KM12): 1490 nM
TGI (HT29): 716 nM
GI50 (HT29; Homo sapiens, HT-29): 118 nM
CC50 (HT29; Homo sapiens, HT-29, read-out: LC50 (the source's name)): 68100 nM
GI50 (SF-539; Homo sapiens): 241 nM
CC50 (SF-539; [1]): 3390 nM
TGI (SF-539): 1150 nM
GI50 (MOLT-4; Homo sapiens): 317 nM
CC50 (MOLT-4; [1]): > 100000 nM
TGI (MOLT-4): >100000 nM
TGI (786-0): 1330 nM
GI50 (786-0; Homo sapiens): 300 nM
CC50 (786-0; [1]): 4020 nM
GI50 (NCI-H522; Homo sapiens): 167 nM
CC50 (NCI-H522; [1]): 13000 nM
TGI (NCI-H522): 845 nM
GI50 (CCRF-CEM; Homo sapiens): 165 nM
CC50 (CCRF-CEM; [1]): > 100000 nM
TGI (CCRF-CEM): >100000 nM
GI50 (SR; Homo sapiens): 60.1 nM
CC50 (SR; [1]): > 100000 nM
TGI (SR): >100000 nM
GI50 (SN12C; Homo sapiens): 458 nM
CC50 (SN12C; [1]): > 100000 nM
TGI (SN12C): 10200 nM
TGI (HCT-15): 13100 nM
GI50 (HCT-15; Homo sapiens): 430 nM
CC50 (HCT-15; [1]): 90200 nM
TGI (HOP-62): 1060 nM
GI50 (HOP-62; Homo sapiens): 187 nM
CC50 (HOP-62; [1]): 19200 nM
TGI (T-47D): 445 nM
GI50 (T-47D; Homo sapiens, T47D): 121 nM
CC50 (T-47D; Homo sapiens, T47D, read-out: LC50 (the source's name)): > 100000 nM
GI50 (UACC-62; Homo sapiens): 71.6 nM
TGI (UACC-62): 339 nM
GI50 (RPMI-8226; Homo sapiens): 81.1 nM
CC50 (RPMI-8226; [1]): > 100000 nM
TGI (RPMI-8226): >100000 nM
GI50 (OVCAR-4; Homo sapiens): 509 nM
CC50 (OVCAR-4; [1]): > 100000 nM
TGI (OVCAR-4): 31800 nM
GI50 (SK-MEL-2; Homo sapiens): 433 nM
CC50 (SK-MEL-2; [1]): 34900 nM
TGI (SK-MEL-2): 3890 nM
